Experimental data from publication PMC10815964, “Cyclobutanone Inhibitors of Diaminopimelate Desuccinylase (DapE) as Potential New Antibiotics” (International Journal of Molecular Sciences, 2024).

What was measured:
HiDapE = HiDapE (Haemophilus influenzae, UniProt P44514); experiment: DapE inhibition, ninhydrin-based assay; format: biochemical; settings: for inhibition at 100 µM: 100 µM inhibitor, read-out: DapE % Inhib at 100 µM; for IC50: ninhydrin assay
Protocol: All compounds were screened for DapE inhibitory potency using a ninhydrin-based assay at 100 μM, and IC50 values were determined for molecules that inhibited DapE > 70% at 100 μM (Table 1). Some SAR trends emerge from the data.
Experimental IC50 curves for cyclobutanone inhibitors against DapE were identified as sigmoidal shaped response curves, as opposed to simple hyperbolic plots. […] IC50 curves with the corresponding Hill coefficients are reported in the Supplementary Materials as Figures S74−S81. Experimental Hill coefficients may provide information on the number of binding sites of a biological target (receptors and enzymes) interacting with ligands.
The inhibition of HiDapE by potential inhibitors was assessed using the previously developed ninhydrin assay with slight modifications. It was performed in a PCR Thermal Cycler System. All experiments were performed in triplicate in 50 mM HEPES buffer at pH 7.5. Reaction volumes were 100 µL of 2 mM N^6-Methyl-L,L-SDAP and 8 nM HiDapE. Ninhydrin was purchased as a 2% solution in 100% DMSO/lithium acetate buffer at pH 5.2. The inhibitor, followed by HiDapE, was added to a 50 mM HEPES (pH 7.5) buffered solution at 30 °C, and the mixture was incubated at 30 °C for 10 min. N^6-Methyl-L,L-SDAP was added, and the reaction mixture was incubated at 30 °C for 10 min, then heated to 99 °C for 1 min, and further cooled to 0 °C for 1 min. The 2% ninhydrin solution (50 µL) was added, and the mixture was thoroughly mixed. The reaction mixture was heated to 80 °C for 15 min, then cooled to 0 °C for 1 min. The absorbance of an 80 μL aliquot was recorded at 570 nm on a BioTek Synergy 2 microplate reader. All the inhibition assays of HiDapE were performed in triplicate and the IC50 values were obtained by fitting the data following the modified Hill equation: V = V0 + (Vmax − V0) XnH/(XnH0.5 + XnH) using the graphing suite Origin 9.1 with the Levenberg–Marquardt non-linear least-squares algorithm. The velocity in the absence of the substrate is […]; the velocity at saturating concentrations of the substrate or with no inhibitor for the inhibition assay is Vmax; X is the concentration of the substrate or inhibitor; and X0.5 is the substrate (S0.5) and inhibitor (I0.5) concentration at 50% maximum velocity and at 50% inhibition, respectively. The Hill coefficient is represented as nH.

Sequence of HiDapE (P44514 whole entry): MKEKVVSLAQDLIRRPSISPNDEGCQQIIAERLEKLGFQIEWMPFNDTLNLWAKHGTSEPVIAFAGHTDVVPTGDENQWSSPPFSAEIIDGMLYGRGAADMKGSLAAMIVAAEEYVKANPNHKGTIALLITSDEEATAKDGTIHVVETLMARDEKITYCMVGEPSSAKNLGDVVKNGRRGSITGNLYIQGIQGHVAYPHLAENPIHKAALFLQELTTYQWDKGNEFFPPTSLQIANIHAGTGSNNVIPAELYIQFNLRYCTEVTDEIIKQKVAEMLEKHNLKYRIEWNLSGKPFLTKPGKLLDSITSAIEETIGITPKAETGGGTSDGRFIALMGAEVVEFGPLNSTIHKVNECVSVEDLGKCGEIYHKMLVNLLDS

Work on COc1cc(Cl)c(C(=O)NC2CCC2=O)cc1OC (stereo not drawn) [3h, 2-Chloro-4,5-dimethoxy-N-(2-oxocyclobutyl)benzamide] yielded an inhibition at 100 µM (HiDapE) of 24.4% and a melting point of 123 to 125 °C.

For O=C(NC1CCC1=O)c1cccc(Cl)c1 (stereo not drawn) [3e, 3-Chloro-N-(2-oxocyclobutyl)benzamide], the inhibition at 100 µM (HiDapE) was 45.8% and the melting point was 64 to 66 °C.

For O=C1CCC1NS(=O)(=O)c1ccc(F)cc1 (stereo not drawn) [3ai, N-(2-Oxocyclobutyl)-4-(fluoro)benzenesulfonamide], the inhibition at 100 µM (HiDapE) was 72.9% and the IC50 (HiDapE) was 53.3 ± 5.4 µM.

In the case of O=C(NC1CCC1=O)c1ccccc1Cl (stereo not drawn) [3d, 2-Chloro-N-(2-oxocyclobutyl)benzamide], the inhibition at 100 µM (HiDapE) is reported as 33.6% and the melting point is reported as 102 to 103 °C.

O=C(CCc1nc2ccccc2[nH]1)NC1CCC1=O (stereo not drawn) [3u] showed an inhibition at 100 µM (HiDapE) of 84.7%, an IC50 (HiDapE) of 52.4 ± 7.4 µM and a melting point of 179 to 181 °C.

For O=C(NC1CCC1=O)c1cccnc1Cl (stereo not drawn) [3n, 2-Chloro-N-(2-oxocyclobutyl)nicotinamide], the inhibition at 100 µM (HiDapE) was less than 5% and the melting point was 80 to 82 °C.

With COc1ccc(S(=O)(=O)N[C@H](C(=O)NC2CCC2=O)C(C)C)cc1 (mixture of isomers) [3z, (2S)-2-((4-Methoxyphenyl)sulfonamido)-3-methyl-N-(2-oxocyclobutyl)butanamide] the inhibition at 100 µM (HiDapE) was 30.7% and the melting point was 179 to 181 °C.

Cc1ccc(S(=O)(=O)N[C@@H](Cc2ccccc2)C(=O)NC2CCC2=O)cc1 (mixture of isomers) [3v, (2S)-2-((4-Methylphenyl)sulfonamido)-N-(2-oxocyclobutyl)-3-phenylpropanamide] showed an inhibition at 100 µM (HiDapE) of 92.8% and an IC50 (HiDapE) of 45.7 ± 1.5 µM.

With O=C(NC1CCC1=O)c1ccc(Br)cc1 (stereo not drawn) [3f, 4-Bromo-N-(2-oxocyclobutyl)benzamide] the inhibition at 100 µM (HiDapE) was 25.2% and the melting point was 104 to 105 °C.

Cc1ccc(C(=O)NC2CCC2=O)cc1 (stereo not drawn) [3c, 4-Methyl-N-(2-oxocyclobutyl)benzamide] showed an inhibition at 100 µM (HiDapE) of 58.1% and a melting point of 149 to 150 °C.

In the case of O=C1CCC1NS(=O)(=O)c1ccc(C(F)(F)F)cc1 (stereo not drawn) [3ah, N-(2-Oxocyclobutyl)-4-(trifluoromethyl)benzenesulfonamide], the inhibition at 100 µM (HiDapE) is reported as 22.6% and the melting point is reported as 74 to 76 °C.

In the case of COc1ccc(C(=O)NC2CCC2=O)cc1Cl (stereo not drawn) [3g, 3-Chloro-4-methoxy-N-(2-oxocyclobutyl)benzamide], the inhibition at 100 µM (HiDapE) is reported as 29.1% and the melting point is reported as 134 to 136 °C.

Work on O=C(Cc1ccc(Br)cc1)NC1CCC1=O (stereo not drawn) [3t, 2-(4-Bromophenyl)-N-(2-oxocyclobutyl)acetamide] yielded an inhibition at 100 µM (HiDapE) of 59% and a melting point of 124 to 127 °C.

O=C(NC1CCC1=O)c1ccncc1 (stereo not drawn) [3p, N-(2-Oxocyclobutyl)isonicotinamide] showed an inhibition at 100 µM (HiDapE) of less than 5% and a melting point of 119 to 121 °C.

O=C(NC1CCC1=O)c1cnc2ccccc2c1 (stereo not drawn) [3q, N-(2-Oxocyclobutyl)quinoline-3-carboxamide] gave an inhibition at 100 µM (HiDapE) of 48% and a melting point of 155 to 156 °C.

With Cc1cccc(C(=O)NC2CCC2=O)c1 (stereo not drawn) [3b, 3-Methyl-N-(2-oxocyclobutyl)benzamide] the inhibition at 100 µM (HiDapE) was 37.8% and the melting point was 94 to 96 °C.

For O=C(NC1CCC1=O)c1ccccc1O (stereo not drawn) [3i, 2-Hydroxy-N-(2-oxocyclobutyl)benzamide], the inhibition at 100 µM (HiDapE) was 28.9% and the melting point was 149 to 151 °C.

In the case of CC(C)[C@@H](NS(=O)(=O)c1ccc(C#N)cc1)C(=O)NC1CCC1=O (mixture of isomers) [3aa, (2R)-2-((4-Cyanophenyl)sulfonamido)-3-methyl-N-(2-oxocyclobutyl)butanamide], the inhibition at 100 µM (HiDapE) is reported as 5.6% and the melting point is reported as 150 to 151 °C.

For COc1ccc(C(=O)NC2CCC2=O)c(O)c1 (stereo not drawn) [3j, 2-Hydroxy-4-methoxy-N-(2-oxocyclobutyl)benzamide], the inhibition at 100 µM (HiDapE) was 73%, the IC50 (HiDapE) was 66.4 ± 2.9 µM and the melting point was 131 to 133 °C.

Cc1ccc(S(=O)(=O)N[C@@H](Cc2c[nH]c3ccccc23)C(=O)NC2CCC2=O)cc1 (mixture of isomers) [3x, (2S)-3-(1H-Indol-3-yl)-2-((4-methylphenyl)sulfonamido)-N-(2-oxocyclobutyl)propanamide] gave an inhibition at 100 µM (HiDapE) of 19.6%.

O=C(N[C@H](Cc1ccccc1)C(=O)NC1CCC1=O)OCc1ccccc1 (mixture of isomers) [3ae, Benzyl ((2R)-1-oxo-1-((2-oxocyclobutyl)amino)-3-phenylpropan-2-yl)carbamate] gave an inhibition at 100 µM (HiDapE) of 97.9% and an IC50 (HiDapE) of 55.4 ± 5.5 µM.

With COc1cc(C(=O)NC2CCC2=O)cc(OC)c1OC (stereo not drawn) [3k, 3,4,5-Trimethoxy-N-(2-oxocyclobutyl)benzamide] the inhibition at 100 µM (HiDapE) was 93.7%, the IC50 (HiDapE) was 39.6 ± 2.9 µM and the melting point was 144 to 146 °C.

Work on Cc1ccc(S(=O)(=O)N[C@@H](Cc2ccccc2)C(=O)NCC2(O)CC2)cc1 [4a, (S)-N-((1-hydroxycyclopropyl)methyl)-2-((4-methylphenyl)sulfonamido)-3-phenylpropanamide] yielded an inhibition at 100 µM (HiDapE) of 36.4%.

Work on O=C(NC1CCC1=O)c1ccccn1 (stereo not drawn) [3l, N-(2-Oxocyclobutyl)picolinamide] yielded an inhibition at 100 µM (HiDapE) of 25.6% and a melting point of 97 to 99 °C.

CC(C)[C@@H](NS(=O)(=O)c1ccc(O)cc1)C(=O)NC1CCC1=O (mixture of isomers) [3ac, (2R)-2-((4-hydroxyphenyl)sulfonamido)-3-methyl-N-(2-oxocyclobutyl)butanamide] gave an inhibition at 100 µM (HiDapE) of 44.4% and a melting point of 139 to 141 °C.

COC(=O)c1ccc(S(=O)(=O)N[C@@H](C(=O)NC2CCC2=O)C(C)C)cc1 (mixture of isomers) [3ab, Methyl 4-(N-((2R)-3-methyl-1-oxo-1-((2-oxocyclobutyl)amino)butan-2-yl)sulfamoyl)benzoate] gave an inhibition at 100 µM (HiDapE) of 10.7% and a melting point of 190 to 191 °C.

COc1cccc(CC(=O)NC2CCC2=O)c1 (stereo not drawn) [3s, 2-(3-Methoxyphenyl)-N-(2-oxocyclobutyl)acetamide] gave an inhibition at 100 µM (HiDapE) of 27% and a melting point of 104 to 105 °C.

Molecule O=C(N[C@@H](Cc1ccc(O)cc1)C(=O)NC1CCC1=O)OCc1ccccc1 (mixture of isomers) [3af, Benzyl ((2S)-3-(4-hydroxyphenyl)-1-oxo-1-((2-oxocyclobutyl)amino)propan-2-yl)carbamate] has an inhibition at 100 µM (HiDapE) of 15.5%.

Molecule CC(C)[C@H](NC(=O)OCc1ccccc1)C(=O)NC1CCC1=O (mixture of isomers) [3ag, Benzyl ((2S)-3-methyl-1-oxo-1-((2-oxocyclobutyl)amino)butan-2-yl)carbamate] has an inhibition at 100 µM (HiDapE) of 53.9%.

O=C(N[C@@H](Cc1ccccc1)C(=O)NC1CCC1=O)OCc1ccccc1 (mixture of isomers) [3ad, Benzyl ((2S)-1-oxo-1-((2-oxocyclobutyl)amino)-3-phenylpropan-2-yl)carbamate] showed an inhibition at 100 µM (HiDapE) of 96.2% and an IC50 (HiDapE) of 69.8 ± 1.4 µM.

Cc1ccc(S(=O)(=O)N[C@@H](Cc2ccccc2)C(=O)NCC(C)(C)O)cc1 [4b, (S)-N-(2-hydroxy-2-methylpropyl)-2-((4-methylphenyl)sulfonamido)-3-phenylpropanamide] gave an inhibition at 100 µM (HiDapE) of 19.1%.

Cc1ccc(S(=O)(=O)N[C@H](Cc2ccccc2)C(=O)NC2CCC2=O)cc1 (mixture of isomers) [3w, (2R)-2-((4-Methylphenyl)sulfonamido)-N-(2-oxocyclobutyl)-3-phenylpropanamide] showed an inhibition at 100 µM (HiDapE) of 55% and an IC50 (HiDapE) greater than 50 µM.

For O=C(NC1CCC1=O)c1cccnc1 (stereo not drawn) [3m, N-(2-Oxocyclobutyl)nicotinamide], the inhibition at 100 µM (HiDapE) was 24.9%.

Work on Cc1ccccc1C(=O)NC1CCC1=O (stereo not drawn) [3a, 2-Methyl-N-(2-oxocyclobutyl)benzamide] yielded an inhibition at 100 µM (HiDapE) of 16.8% and a melting point of 100 to 102 °C.

Work on O=C(NC1CCC1=O)c1cccc2cccnc12 (stereo not drawn) [3r, N-(2-Oxocyclobutyl)quinoline-8-carboxamide] yielded an inhibition at 100 µM (HiDapE) of less than 5% and a melting point of 89 to 91 °C.

O=C(NC1CCC1=O)c1cncc(Br)c1 (stereo not drawn) [3o, 5-Bromo-N-(2-oxocyclobutyl)nicotinamide] gave an inhibition at 100 µM (HiDapE) of 34.6% and a melting point of 114 to 115 °C.
